From patent publication US7402575B2, “Methods of treating inflammation” (priority 2003, dated 2008)
Entries after “also recorded” stand apart in the source; their conditions may differ.

Assays:
[1] = tested on: right ventricular trabecular preparation; assay: Adrenergic response to field stimulation or isoproterenol in right ventricular trabecular preparation; assay type: cell-based, dog; conditions: TAC 10^−4M
Text: Since myocardial depression in sepsis may also be related to a diminished sympathetic response, the possible role of Lzm-S in contributing to this effect was additionally investigated in the right ventricular preparation as previously described (18). Neural adrenergic stimulation was produced in which the pulse width of the electrical stimulus-trains was increased from 2 ms to 20 ms, keeping other stimulus parameters unchanged. The increase in tension seen with sympathetic nerve stimulation was calculated as a percent increase from basal twitch amplitude. In the protocol used, the adrenergic response was measured before and after 10^−10M, 10^−9M, and 10^−8M Lzm-S were added to the organ bath. The results obtained with Lzm-S were compared with those obtained in time control experiments in which equal volumes of KH were added to the preparation at identical intervals. In a second set of experiments, it was observed whether TAC prevented the decrease in the adrenergic response produced by Lzm-S. Either TAC (10^−4M) or KH was added to an organ bath, and the results obtained with TAC treatment were compared with those obtained without the addition of the inhibitor. […]

[2] = tested on: Datura stramonium lectin; assay: Inhibition by TAC of lectin-induced depression of isometric tension in right ventricular trabecular preparation; assay type: cell-based, dog; conditions: TAC 10^−4M pre-treatment
Description: After baseline tension was determined, either the lectin or placebo was placed into respective organ baths. The concentrations of the lectins used were 10^−8M, 10^−7M, and 10^−6M based on the concentration of lysozyme found in sepsis that averaged approximately 10^−8M. In the case of Datura stramonium lectin, moreover, the effect of TAC on inhibiting the myocardial depression caused by this lectin was also examined. […] Measurements were obtained at 5 minute intervals. The changes in isometric tension measured from baseline were compared between the lectin treated and placebo preparations.
Lectins are nonenzymatic proteins that bind to carbohydrates and can be classified by their specificity for a particular sugar or polysaccharide (42). […] After baseline tension was determined, either the lectin or placebo (i.e. KH) was placed into respective organ baths in which the concentrations of the lectins used were similar to those described for Lzm-S. In the case of DSL, moreover, it was assessed whether TAC could also prevent the depression caused by this lectin.

[3] = tested on: E. coli sepsis in dogs; assay: Chitobiose given after 3.5 h of E. coli sepsis, reversal of myocardial depression; assay type: in vivo, dog; set-up: HR: unit not given here; conditions: for HR / Pwp: mean±SD
Description: The E. coli model used in this study was identical to that previously described. Sepsis was induced by the intravenous infusion of 10^10 colony forming units of live E. coli (designation 0111:B4). The bacteria were suspended in normal saline infusion, which was given over 0.5 h. A constant infusion of approximately 5×10^9 colony forming units/h of E. coli was then maintained for the remainder of the experiment.
During the experiment, the animals (16-21) kg were anesthetized with thiopental sodium (20 mg/kg iv) and constantly infused with sufentanil citrate (1 ug/min) and midazolam (5 ug/kg/min). The rates were adjusted to abolish the palpebral reflex. The animals were placed in the supine position; the trachea was intubated with an endotracheal tube; and the lungs were mechanically ventilated at a tidal volume of 20 ml/kg. The ventilator rate was initially set to maintain blood pH at approximately 7.35 and was changed as necessary over the course of the experiment to maintain blood pH as normal as possible. 100% oxygen was inspired to prevent hypoxemia from contributing to the results, and arterial oxygen tension was maintained greater than 500 mmHg over the course of the study in all experiments.
A thermister tipped catheter was advanced from the jugular vein into the pulmonary artery to measure pulmonary arterial pressure, mean pulmonary capillary wedge pressure (Pwp), right atrial pressure, thermodilution cardiac output (CO, Columbus Instruments, Ohio), and to obtain mixed venous oxygen blood samples. A polyethylene catheter was placed into the femoral artery to measure mean blood pressure (MAP) and to withdraw samples of blood for blood gas analysis. All catheters were connected to transducers (Cobe Laboratories) and were referenced relative to the left atrium. All transducers were connected to a chart recorder (Astro-Med, W Warwick, R.I.). Heart rate (HR) was measured from the recorder tracing. Stroke volume (SV) was calculated as CO/heart rate. Stroke work (SW) was calculated from SV×(MAP-Pwp).
After baseline measurements were obtained, bacteria were infused over a six hour period. Chitobiose was infused at 3.5 hours post sepsis after myocardial depression had already developed and was administered over a 0.5 h period. The dose used was 1000 mg (40 mg/kg) in which the drug was mixed in 100 ml D5W. Based on preliminary calculations, this dose could achieve an approximate plasma concentration of 0.5×10^−4 M. 100 mg/hr of chitobiose (5 mg/kg) mixed in 50 ml of D5W was then infused over the remaining course of the experiment. Measurements were obtained after 3.5 hr of sepsis, after treatment, and 1 and 2 hrs post treatment. Stroke work (SW) was the primary measurement of the myocardial contractility used in this study. Pulmonary capillary wedge pressure (Pwp) was used as an index of preload and was maintained constant between conditions at approximately 10 mmHg. Normal saline solution was given as necessary to maintain Pwp relatively constant.
Statistics included one way analysis of variance for repeated measures and Student Newman Keuls' multiple comparison test. The results are reported mean±1SD.

[4] = post sepsis (3.5 h), before chitobiose

SMILES | Effect of pretreatment on the reduction in adrenergic response caused by Lzm-S [1] | Effect of TAC on myocardial depression caused by Datura stramonium lectin [2] | Stroke work post treatment vs 3.5 hrs postsepsis ([3]; 1 and 2 hrs post treatment) | HR ([3]; 1 hr post treatment) | Pwp ([3]; 1 hr post treatment) [mmHg] | HR ([3]; 2 hrs post treatment) | Pwp ([3]; 2 hrs post treatment) [mmHg] | HR ([3]; after treatment) | HR ([3]; baseline) | Pwp ([3]; baseline) [mmHg] | Mean arterial pressure after treatment vs 3.5 hrs postsepsis ([3]; chitobiose 1000 mg over 0.5 h at 3.5 h post sepsis, then 100 mg/hr, 4 dogs) | Myocardial depression already developed in sepsis ([3]; chitobiose administered after 3.5 hr of sepsis) | Cardiac output vs baseline ([3]; dog, in vivo) | Stroke work at the post treatment conditions vs baseline ([3]; dog, in vivo) | Stroke-volume among the treatment conditions ([3]; dog, in vivo) | HR [3, 4] | Pwp [3, 4] [mmHg] | Pwp ([3]; post treatment)
CC(=O)N[C@H]1[C@H](O[C@H]2[C@H](O)[C@@H](NC(C)=O)C(O)O[C@@H]2CO)O[C@H](CO)[C@@H](O[C@@H]2O[C@H](CO)[C@@H](O)[C@H](O)[C@H]2NC(C)=O)[C@@H]1O (stereo partly drawn) [TAC, N,N′,N″ triacetylglucosamine] | prevented the reduction in adrenergic response | markedly attenuated; also recorded: could be reversed by pre-treatment with TAC; also recorded: blocked the isometric depression |  |  |  |  |  |  |  |  |  |  |  |  |  |  |  | 
CC(=O)N[C@H]1[C@H](O[C@H]2[C@H](O)[C@@H](NC(C)=O)C(O)O[C@@H]2CO)O[C@H](CO)[C@@H](O)[C@@H]1O (stereo partly drawn) [chitobiose, N,N′ diacetylglucosamine] |  |  | significant increase in stroke-work at 1 and 2 hrs post treatment; also recorded: increased after chitobiose treatment | 86±20 | 9.5±1.2 | 87±12 | 9.9±0.9 | 91±25 | 48±9 | 10±0.8 | significant increase in mean arterial pressure after treatment; also recorded: increased after treatment with chitobiose | reversal of the myocardial depression observed | higher at the different conditions as compared with baseline | not different from that found at baseline | did not reach statistical significance | 98±24 | 9.6±0.8 | 10.4±0.5
